Read-outs that look alike come from different tables or passages of the source.
Columns and labels:
Assay in all cases: kinase profiling panel
Type in all cases: biochemical
Conditions in all cases: read-out: % Activity Remaining
BRSK1 = molecular target: T1, BRSK1 (Homo sapiens, UniProt Q8TDC3)
T1 sequence (Q8TDC3 1-778): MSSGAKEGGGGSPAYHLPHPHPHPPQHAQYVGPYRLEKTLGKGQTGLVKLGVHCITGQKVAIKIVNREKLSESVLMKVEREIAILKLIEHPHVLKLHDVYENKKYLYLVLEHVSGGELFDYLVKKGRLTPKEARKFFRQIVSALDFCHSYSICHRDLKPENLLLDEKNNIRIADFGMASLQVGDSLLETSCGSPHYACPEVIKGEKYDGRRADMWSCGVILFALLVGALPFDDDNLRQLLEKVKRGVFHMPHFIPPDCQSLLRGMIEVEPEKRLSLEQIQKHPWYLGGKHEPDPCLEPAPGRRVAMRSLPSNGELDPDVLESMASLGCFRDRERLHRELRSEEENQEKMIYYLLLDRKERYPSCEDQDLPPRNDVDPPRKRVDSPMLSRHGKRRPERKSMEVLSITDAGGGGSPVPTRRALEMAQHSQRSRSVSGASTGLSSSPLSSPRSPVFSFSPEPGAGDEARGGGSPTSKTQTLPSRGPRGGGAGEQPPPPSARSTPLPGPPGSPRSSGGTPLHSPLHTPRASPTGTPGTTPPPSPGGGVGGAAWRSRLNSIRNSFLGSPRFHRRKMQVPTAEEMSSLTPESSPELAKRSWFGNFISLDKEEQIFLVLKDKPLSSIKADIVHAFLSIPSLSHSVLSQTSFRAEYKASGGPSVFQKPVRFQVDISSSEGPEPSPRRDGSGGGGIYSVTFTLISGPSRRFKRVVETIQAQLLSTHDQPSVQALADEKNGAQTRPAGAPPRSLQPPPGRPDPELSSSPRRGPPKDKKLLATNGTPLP
From the text: (§1) Protein kinase profiling against a Dundee panel of 140 protein kinases was undertaken at the International Centre for Protein Kinase Profiling. The result for each kinase was presented as a mean kinase activity of the reaction taken in triplicate relative to a control sample treated with DMSO. Assay conditions and abbreviations are available at http://www.kinase-screen.mrc.ac.uk.

CSK = CSK (Homo sapiens, UniProt P41240)
From the text: as §1

PKC zeta = molecular target: T2, PKC zeta (Homo sapiens, UniProt Q05513)
T2 sequence (Q05513 1-592): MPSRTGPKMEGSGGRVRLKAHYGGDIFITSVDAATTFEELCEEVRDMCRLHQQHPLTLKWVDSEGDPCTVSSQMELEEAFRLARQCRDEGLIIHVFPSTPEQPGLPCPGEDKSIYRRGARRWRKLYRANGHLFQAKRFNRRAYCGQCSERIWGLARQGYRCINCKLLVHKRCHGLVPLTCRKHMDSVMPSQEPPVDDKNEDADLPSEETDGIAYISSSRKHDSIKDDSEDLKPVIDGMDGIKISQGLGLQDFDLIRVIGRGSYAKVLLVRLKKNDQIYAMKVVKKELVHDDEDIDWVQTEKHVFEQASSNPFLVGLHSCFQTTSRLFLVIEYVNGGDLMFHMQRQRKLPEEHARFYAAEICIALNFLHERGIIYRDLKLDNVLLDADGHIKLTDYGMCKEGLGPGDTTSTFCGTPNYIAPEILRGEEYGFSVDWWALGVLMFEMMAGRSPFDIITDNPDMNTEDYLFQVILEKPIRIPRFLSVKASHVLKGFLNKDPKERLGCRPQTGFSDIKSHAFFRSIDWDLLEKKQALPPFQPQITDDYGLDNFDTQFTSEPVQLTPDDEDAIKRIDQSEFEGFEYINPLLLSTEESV
From the text: as §1

RIPK2 = RIPK2 (Homo sapiens, UniProt O43353)
From the text: as §1

TTK = molecular target: T3, TTK (Homo sapiens, UniProt P33981)
T3 sequence (P33981 1-857): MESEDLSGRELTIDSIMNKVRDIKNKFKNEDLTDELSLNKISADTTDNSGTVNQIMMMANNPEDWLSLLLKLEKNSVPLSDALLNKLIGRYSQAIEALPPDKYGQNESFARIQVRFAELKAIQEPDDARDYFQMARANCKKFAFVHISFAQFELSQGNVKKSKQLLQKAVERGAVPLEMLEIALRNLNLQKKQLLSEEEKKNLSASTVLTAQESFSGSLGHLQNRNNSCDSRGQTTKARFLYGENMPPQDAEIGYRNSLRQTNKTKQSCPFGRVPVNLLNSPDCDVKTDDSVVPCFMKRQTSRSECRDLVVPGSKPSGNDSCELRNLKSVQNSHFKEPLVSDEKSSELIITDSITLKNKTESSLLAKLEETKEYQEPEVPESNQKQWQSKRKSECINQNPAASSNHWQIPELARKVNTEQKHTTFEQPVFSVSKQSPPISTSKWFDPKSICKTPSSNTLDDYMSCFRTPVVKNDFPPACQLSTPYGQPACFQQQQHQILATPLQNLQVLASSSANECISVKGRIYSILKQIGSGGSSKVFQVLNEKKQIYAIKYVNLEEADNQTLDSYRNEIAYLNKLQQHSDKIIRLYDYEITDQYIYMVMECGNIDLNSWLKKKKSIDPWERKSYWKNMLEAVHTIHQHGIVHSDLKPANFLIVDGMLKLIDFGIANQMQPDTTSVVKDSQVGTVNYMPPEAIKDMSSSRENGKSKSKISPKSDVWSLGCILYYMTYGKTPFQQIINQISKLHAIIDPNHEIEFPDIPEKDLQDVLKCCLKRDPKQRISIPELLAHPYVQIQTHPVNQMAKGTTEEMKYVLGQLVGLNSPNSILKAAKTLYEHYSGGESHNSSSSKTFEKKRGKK
From the text: as §1

Chain of RIPK2 (O43353 whole entry): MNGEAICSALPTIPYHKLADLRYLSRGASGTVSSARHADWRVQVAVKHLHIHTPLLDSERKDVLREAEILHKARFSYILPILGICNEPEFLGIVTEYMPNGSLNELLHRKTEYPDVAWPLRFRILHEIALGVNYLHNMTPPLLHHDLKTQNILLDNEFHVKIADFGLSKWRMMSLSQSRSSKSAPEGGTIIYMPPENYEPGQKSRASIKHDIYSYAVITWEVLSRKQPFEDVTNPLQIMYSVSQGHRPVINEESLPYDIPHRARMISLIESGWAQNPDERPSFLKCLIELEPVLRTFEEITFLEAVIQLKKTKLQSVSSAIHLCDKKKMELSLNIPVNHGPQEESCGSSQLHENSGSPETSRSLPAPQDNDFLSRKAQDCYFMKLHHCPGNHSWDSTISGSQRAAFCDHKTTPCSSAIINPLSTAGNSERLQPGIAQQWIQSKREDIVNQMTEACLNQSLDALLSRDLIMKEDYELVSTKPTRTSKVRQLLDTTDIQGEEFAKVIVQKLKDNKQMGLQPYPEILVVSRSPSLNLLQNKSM
Chain of CSK (P41240 whole entry): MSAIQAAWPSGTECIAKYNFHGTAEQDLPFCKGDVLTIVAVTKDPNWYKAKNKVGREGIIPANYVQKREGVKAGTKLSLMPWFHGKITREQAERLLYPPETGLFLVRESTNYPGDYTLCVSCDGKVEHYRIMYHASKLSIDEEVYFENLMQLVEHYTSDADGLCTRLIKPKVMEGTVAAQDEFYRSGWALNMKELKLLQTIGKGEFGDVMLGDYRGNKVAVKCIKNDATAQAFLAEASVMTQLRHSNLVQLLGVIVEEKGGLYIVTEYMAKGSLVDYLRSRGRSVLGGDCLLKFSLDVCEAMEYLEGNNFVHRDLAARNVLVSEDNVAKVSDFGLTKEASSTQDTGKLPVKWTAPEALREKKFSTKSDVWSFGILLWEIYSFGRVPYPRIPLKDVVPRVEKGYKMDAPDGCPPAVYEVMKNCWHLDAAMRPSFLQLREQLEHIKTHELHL

Structure (SMILES) | remaining activity at 1 µM (BRSK1; 1 µM) | remaining activity at 1 µM (CSK; 1 µM) | remaining activity at 1 µM (PKC zeta; 1 µM) | remaining activity at 1 µM (RIPK2; 1 µM) | remaining activity at 1 µM (TTK; 1 µM) | remaining activity at 1 µM (BRSK1) | remaining activity at 1 µM (CSK) | remaining activity at 1 µM (PKC zeta) | remaining activity at 1 µM (RIPK2) | remaining activity at 1 µM (TTK)
Cc1ccc(F)c(S(=O)(=O)Nc2ccc(-c3nc(OC[C@H]4CN(CCCCCCOCCOCCOCC(=O)N[C@H](C(=O)N5C[C@H](O)C[C@H]5C(=O)NCc5ccc(-c6scnc6C)cc5)C(C)(C)C)CCO4)c4cn[nH]c4n3)cc2)c1 [SGK3-PROTAC1] | 108% | 118% | 96% | 88% | 89% | – | – | – | – | –
Cc1ccc(F)c(S(=O)(=O)Nc2ccc(-c3nc(OC[C@H]4CNCCO4)c4cn[nH]c4n3)cc2)c1 [308-R, reference compound] | – | – | – | – | – | 106% | 96% | 72% | 122% | 91%
COc1ccc(Cl)c(S(=O)(=O)Nc2ccc(-c3nc(OC[C@H]4CNCCO4)c4c(C)n[nH]c4n3)cc2)c1 [290-R, reference compound] | – | – | – | – | – | 95% | 66% | 110% | 124% | 76%
Cc1ccc(F)c(S(=O)(=O)Nc2ccc(-c3nc(OC[C@H]4CN(CCCCCCOCCOCCOCC(=O)N[C@H](C(=O)N5C[C@@H](O)C[C@H]5C(=O)NCc5ccc(-c6scnc6C)cc5)C(C)(C)C)CCO4)c4cn[nH]c4n3)cc2)c1 [cisSGK3-PROTAC1] | 106% | 113% | 110% | 94% | 99% | – | – | – | – | –

— PMC6757289, “Design and Characterization of SGK3-PROTAC1, an Isoform Specific SGK3 Kinase PROTAC Degrader” (ACS Chemical Biology, 2019)
